Results taken from patent US10953011B2, “Methods of treating virally associated cancers with histone deacetylase inhibitors” (priority 2019, dated 2021).
pIC50: −log10 of the molar value.

Legend:
Test in all cases: in vitro HDAC inhibition assay (fluorescence)
Assay type in all cases: biochemical
[1] = target: HDAC4 (Homo sapiens, UniProt P56524); details: for inhibition at 100 µM: read-out: Percentage Inhibition HDAC4
Procedure: (§1) Briefly, all of the compounds are dissolved in DMSO. A series of dilutions of the compounds were prepared with 10% DMSO in HDAC assay buffer and 5 μl of the dilution was added to a 50 μl reaction so that the final concentration of DMSO is 1% in all of reactions. The compounds were pre-incubated in duplicate at RT for 1 hour in a mixture containing HDAC assay buffer, 5 μg BSA, HDAC enzyme (see Table 7) and a the particular HDACi. After 1 hour, the enzymatic reactions were initiated by the addition of HDAC substrate (BPS Bioscience) to a final concentration of 10 μM or 2 μM. The enzymatic reaction proceeded for 30 minutes at 37° C.
(§2) HDAC activity assays were performed in duplicates at each concentration. The fluorescent intensity data were analyzed using the computer software, Graphpad Prism. In the absence of the compound, the fluorescent intensity (Ft) in each data set was defined as 100% activity. In the absence of HDAC, the fluorescent intensity (Fb) in each data set was defined as 0% activity. The percent activity in the presence of each compound was calculated according to the following equation: % activity=(F−Fb)/(Ft−Fb), where F=the fluorescent intensity in the presence of the compound.
(§3) The values of % activity versus a series of compound concentrations were then plotted using non-linear regression analysis of Sigmoidal dose-response curve generated with the equation Y=B+(T−B)/1+10^((Log EC50-X)×Hill Slope), where Y=percent activity, B=minimum percent activity, T=maximum percent activity, X=logarithm of compound and Hill Slope=slope factor or Hill coefficient. The IC50 value was determined by the concentration causing a half-maximal percent activity.

[2] = target: T1, HDAC7 (Homo sapiens, UniProt Q8WUI4); details: for inhibition at 100 µM: read-out: Percentage Inhibition HDAC7
T1 sequence (Q8WUI4 1-952): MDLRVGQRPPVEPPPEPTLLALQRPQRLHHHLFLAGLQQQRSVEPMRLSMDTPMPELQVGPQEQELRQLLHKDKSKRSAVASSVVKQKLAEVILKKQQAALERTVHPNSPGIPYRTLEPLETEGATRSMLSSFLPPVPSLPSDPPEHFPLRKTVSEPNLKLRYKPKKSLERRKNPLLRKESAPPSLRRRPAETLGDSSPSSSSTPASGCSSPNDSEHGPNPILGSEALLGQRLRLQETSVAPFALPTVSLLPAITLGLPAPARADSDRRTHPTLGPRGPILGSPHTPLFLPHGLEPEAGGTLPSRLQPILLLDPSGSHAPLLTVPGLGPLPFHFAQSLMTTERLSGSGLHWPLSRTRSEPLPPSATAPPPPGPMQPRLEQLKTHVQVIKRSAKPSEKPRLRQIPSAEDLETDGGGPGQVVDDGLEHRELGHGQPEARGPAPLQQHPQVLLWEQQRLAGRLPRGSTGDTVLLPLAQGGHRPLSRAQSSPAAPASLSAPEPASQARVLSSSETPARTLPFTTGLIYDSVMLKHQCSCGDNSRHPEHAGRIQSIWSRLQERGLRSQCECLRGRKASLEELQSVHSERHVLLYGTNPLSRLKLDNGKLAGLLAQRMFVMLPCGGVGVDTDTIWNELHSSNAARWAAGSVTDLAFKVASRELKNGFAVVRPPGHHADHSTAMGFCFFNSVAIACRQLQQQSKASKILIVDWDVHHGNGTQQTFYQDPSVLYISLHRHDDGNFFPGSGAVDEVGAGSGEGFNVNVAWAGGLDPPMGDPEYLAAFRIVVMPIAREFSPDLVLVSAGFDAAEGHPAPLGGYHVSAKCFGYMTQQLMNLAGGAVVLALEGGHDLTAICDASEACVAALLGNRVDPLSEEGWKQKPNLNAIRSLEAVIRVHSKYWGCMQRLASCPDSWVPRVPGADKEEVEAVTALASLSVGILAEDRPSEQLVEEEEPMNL
Procedure: as §1, §2, §3

[3] = target: HDAC9 (Homo sapiens, UniProt Q9UKV0); details: for inhibition at 100 µM: read-out: Percentage Inhibition HDAC9
Procedure: as §1, §2, §3

[4] = target: T2, HDAC11 (Homo sapiens, UniProt Q96DB2)
T2 sequence (Q96DB2 1-347): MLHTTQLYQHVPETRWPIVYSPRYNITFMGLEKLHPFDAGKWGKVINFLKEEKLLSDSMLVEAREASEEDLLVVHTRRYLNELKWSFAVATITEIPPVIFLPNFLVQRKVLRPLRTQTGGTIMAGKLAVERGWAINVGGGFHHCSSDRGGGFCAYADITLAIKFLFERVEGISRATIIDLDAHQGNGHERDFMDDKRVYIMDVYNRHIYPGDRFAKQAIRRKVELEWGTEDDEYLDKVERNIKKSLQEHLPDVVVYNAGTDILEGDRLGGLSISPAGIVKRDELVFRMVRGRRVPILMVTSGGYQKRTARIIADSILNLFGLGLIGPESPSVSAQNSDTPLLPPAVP
Procedure: as §1, §2, §3

[5] = target: HDAC1 (Homo sapiens, UniProt Q13547)
Procedure: as §1, §2, §3

[6] = target: HDAC5 (Homo sapiens, UniProt Q9UQL6)
Procedure: as §1, §2, §3

Chain of HDAC9 (Q9UKV0 whole entry): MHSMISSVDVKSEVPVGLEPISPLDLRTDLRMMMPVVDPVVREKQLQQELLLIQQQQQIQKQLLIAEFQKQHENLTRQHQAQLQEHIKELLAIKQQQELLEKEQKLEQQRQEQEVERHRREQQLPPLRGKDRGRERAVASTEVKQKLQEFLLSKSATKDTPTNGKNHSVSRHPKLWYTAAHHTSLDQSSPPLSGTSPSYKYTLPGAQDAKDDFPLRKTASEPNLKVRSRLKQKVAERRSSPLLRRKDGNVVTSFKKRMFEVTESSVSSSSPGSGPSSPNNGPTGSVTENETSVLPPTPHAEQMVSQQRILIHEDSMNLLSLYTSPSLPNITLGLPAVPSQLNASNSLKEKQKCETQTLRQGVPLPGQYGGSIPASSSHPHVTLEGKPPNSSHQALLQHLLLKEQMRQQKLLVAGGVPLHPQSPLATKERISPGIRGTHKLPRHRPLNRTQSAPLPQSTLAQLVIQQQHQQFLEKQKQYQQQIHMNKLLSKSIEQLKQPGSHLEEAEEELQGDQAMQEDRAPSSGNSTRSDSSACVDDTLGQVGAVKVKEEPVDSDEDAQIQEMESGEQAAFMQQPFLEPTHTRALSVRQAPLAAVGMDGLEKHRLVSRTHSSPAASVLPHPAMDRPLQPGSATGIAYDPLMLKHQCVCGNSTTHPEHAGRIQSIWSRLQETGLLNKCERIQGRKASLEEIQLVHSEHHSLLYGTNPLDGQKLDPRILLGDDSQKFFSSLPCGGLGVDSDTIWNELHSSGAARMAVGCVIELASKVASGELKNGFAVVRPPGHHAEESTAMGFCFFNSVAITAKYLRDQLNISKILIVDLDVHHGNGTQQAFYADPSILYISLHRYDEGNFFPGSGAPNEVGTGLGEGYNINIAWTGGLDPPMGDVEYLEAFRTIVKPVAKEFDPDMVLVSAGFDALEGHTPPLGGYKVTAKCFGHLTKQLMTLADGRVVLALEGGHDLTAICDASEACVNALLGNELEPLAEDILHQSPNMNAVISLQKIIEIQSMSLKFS
Chain of HDAC4 (P56524 whole entry): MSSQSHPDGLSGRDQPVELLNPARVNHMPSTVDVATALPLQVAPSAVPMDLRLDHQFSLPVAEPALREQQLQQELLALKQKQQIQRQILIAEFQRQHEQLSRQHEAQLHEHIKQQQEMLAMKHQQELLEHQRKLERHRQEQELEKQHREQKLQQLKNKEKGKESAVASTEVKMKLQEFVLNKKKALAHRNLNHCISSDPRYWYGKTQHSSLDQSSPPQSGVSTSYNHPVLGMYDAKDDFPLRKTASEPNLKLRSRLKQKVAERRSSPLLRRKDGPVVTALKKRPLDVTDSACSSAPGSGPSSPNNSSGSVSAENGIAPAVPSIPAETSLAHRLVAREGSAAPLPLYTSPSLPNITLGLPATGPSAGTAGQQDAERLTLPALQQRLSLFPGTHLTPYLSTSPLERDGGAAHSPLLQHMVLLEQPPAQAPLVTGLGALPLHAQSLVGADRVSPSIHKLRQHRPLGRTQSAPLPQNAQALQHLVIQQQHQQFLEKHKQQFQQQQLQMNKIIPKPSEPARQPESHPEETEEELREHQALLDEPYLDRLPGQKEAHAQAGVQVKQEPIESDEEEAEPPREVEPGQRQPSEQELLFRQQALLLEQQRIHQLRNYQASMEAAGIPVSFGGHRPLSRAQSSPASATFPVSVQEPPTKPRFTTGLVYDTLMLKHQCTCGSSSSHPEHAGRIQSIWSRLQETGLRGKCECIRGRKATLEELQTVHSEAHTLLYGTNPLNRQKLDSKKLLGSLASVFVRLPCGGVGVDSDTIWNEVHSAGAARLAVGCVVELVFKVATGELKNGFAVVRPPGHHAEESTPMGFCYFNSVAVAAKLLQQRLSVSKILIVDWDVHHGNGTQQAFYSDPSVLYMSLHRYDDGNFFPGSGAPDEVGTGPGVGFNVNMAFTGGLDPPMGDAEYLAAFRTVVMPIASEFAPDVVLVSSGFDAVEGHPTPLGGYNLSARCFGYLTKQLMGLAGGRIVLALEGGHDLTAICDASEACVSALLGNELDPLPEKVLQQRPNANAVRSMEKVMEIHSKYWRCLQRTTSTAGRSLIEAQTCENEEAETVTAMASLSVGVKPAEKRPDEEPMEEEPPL
Chain of HDAC5 (Q9UQL6 whole entry): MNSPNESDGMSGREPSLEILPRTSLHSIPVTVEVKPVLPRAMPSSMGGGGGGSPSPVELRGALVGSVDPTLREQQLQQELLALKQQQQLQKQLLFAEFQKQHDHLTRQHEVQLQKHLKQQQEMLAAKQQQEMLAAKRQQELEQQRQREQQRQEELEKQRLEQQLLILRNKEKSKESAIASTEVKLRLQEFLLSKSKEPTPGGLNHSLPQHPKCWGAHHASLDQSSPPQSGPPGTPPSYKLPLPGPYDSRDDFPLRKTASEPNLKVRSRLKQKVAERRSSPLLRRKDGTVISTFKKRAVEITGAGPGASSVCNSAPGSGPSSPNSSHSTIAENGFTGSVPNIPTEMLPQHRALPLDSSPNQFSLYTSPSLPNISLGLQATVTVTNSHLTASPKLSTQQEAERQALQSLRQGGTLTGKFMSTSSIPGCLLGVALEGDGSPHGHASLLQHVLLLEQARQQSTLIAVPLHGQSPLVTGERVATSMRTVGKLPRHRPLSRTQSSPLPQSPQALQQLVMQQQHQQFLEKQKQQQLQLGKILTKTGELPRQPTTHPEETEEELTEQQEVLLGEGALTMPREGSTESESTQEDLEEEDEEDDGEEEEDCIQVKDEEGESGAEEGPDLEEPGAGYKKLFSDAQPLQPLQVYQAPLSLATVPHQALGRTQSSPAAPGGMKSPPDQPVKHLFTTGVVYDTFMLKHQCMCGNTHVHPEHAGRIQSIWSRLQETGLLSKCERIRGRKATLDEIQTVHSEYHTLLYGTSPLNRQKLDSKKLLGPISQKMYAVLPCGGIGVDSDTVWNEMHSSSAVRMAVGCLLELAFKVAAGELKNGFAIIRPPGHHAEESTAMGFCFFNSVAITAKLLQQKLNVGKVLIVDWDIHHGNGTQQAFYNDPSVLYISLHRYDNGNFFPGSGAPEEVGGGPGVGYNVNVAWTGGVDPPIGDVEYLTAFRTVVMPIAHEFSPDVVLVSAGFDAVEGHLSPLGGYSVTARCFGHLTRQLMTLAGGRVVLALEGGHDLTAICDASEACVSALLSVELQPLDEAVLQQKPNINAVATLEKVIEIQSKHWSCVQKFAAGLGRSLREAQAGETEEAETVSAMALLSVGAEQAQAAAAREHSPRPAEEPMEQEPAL
Chain of HDAC1 (Q13547 whole entry): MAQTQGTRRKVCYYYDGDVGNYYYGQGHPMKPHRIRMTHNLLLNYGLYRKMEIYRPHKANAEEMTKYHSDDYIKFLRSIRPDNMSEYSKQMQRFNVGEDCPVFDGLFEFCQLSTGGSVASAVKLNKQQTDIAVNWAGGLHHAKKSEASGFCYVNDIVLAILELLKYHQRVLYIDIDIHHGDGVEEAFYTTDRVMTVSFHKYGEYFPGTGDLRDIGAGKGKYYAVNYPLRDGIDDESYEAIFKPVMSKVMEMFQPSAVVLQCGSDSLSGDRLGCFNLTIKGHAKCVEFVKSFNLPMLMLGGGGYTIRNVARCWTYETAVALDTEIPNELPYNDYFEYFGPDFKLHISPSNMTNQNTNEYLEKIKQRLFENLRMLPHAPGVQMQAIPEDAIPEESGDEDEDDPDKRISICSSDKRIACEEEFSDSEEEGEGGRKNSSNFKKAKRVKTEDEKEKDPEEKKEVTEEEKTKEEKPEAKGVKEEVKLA

SMILES	inhibition at 100 µM [1] [%]	inhibition at 100 µM [2] [%]	inhibition at 100 µM [3] [%]	pIC50 [4]	pIC50 [5]	inhibition at 100 µM ([4]; read-out: Percentage Inhibition HDAC11) [%]	pIC50 [1]	pIC50 [6]	inhibition at 100 µM ([6]; read-out: Percentage Inhibition HDAC5) [%]	pIC50 [2]	pIC50 [3]
O=C(CCCCCCC(=O)Nc1ccccc1)NO [SAHA, suberanilohydroxamic acid]	34	27	37								
Nc1ccccc1NC(=O)c1ccc(CNC(=O)OCc2cccnc2)cc1 [MS-275, entinostat]				< 4.00							
C/C=C1\NC(=O)[C@H]2CSSCC/C=C/[C@H](CC(=O)N[C@H](C(C)C)C(=O)N2)OC(=O)[C@H](C(C)C)NC1=O [FK228, romidepsin]	< 17	< 17	< 17	< 4.00	5.92	< 17	< 4.00	< 4.00	17	< 4.00	< 4.00
